From patent US20180344725A1, “QUINOLONE CHALCONE COMPOUNDS AND USES THEREOF” (priority 2015, published 2018)

Legend:
[1] = test system: KB-C-1; assay: SRB-based cytotoxicity assay; format: cell-based; details: Homo sapiens, KBC-1; KB-C-1, multidrug naïve
Procedure: 1845B5 and MCF-10A non-cancer breast cell lines were cultured in DME/F12 medium supplemented with 10% fetal bovine serum, antibiotics and growth factors. […] The human small cell lung carcinoma H69 cell line and its multidrug-resistant MRP1-overexpressing isogenic H69AR cell line were purchased from ATCC. […] H69 cells grow as large multi-cell aggregates, making it difficult to accurately count cell numbers. […] The IL-6 dependent bortezomib-resistant ANBL6-BR cell line was further supplemented with 1 ng/ml of IL-6. The MCF10AT1 and MCF10CA1a cell lines are isogenic to the MCF10A cell line, and obtained from Dr. Valerie Weaver at the Center for Bioengineering and Tissue Regeneration, UCSF, CA, USA. […] The drug-resistant cells were cultured in the absence of drug for at least one passage before carrying out experiments. All cells were maintained in a humidified incubator at 37° C. […] Cell line authentication was performed using short tandem repeat (STR) profiling. […] Some wells were treated with 100 μl of 10% trichloroacetic acid (TCA) as a negative control and sham (medium with dimethyl sulfoxide; DMSO) treated cells were used as a positive control. […] TCA was removed and cells were washed with cold tap water, and plate was air-dried, followed by addition of 50 μl of 0.4% SRB staining solution to each well. After 30 minutes incubation, SRB staining solution was removed. Cells were washed with 1% acetic acid solution, and then washed with tap water to remove unbound staining solution, followed by air-drying. 200 μl of 10 mM (pH10.5) trizma base buffer was added to each well to solubilise macromolecules. […] Cell growth (inhibition) was calculated by the following formula: % cells proliferation=[(AT-CT)/(ST-CT)]×100 wherein AT=absorbance of treated cells, CT=absorbance of negative control cells, and ST=absorbance of sham treated cells. […] CI values were determined from four independent experiments.

[2] = target: T1, tubulin (colchicine-binding site) (Sus scrofa, UniProt P02550+P02554); assay: Colchicine competition assay; design: species or system porcine; details: colchicine 1.0-8.0 μM
T1 construct: purchased Cytoskeleton Inc. (Denver, Colo.) T240

[3] = test system: U87MG (brain); assay: SRB-based cytotoxicity assay; format: cell-based; details: Homo sapiens, U-87 MG, 72 hours
Procedure, shortened: (§1)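 Seventy-two-hour SRB protein-staining assay with 4,000-5,000 cells/well and compounds delivered in DMSO. Fixation uses cold 10% TCA, and dye is released in Tris pH 10.5 before reading at 540 nm. Duplicate biological experiments, each in quadruplicate, feed the dose-response fits.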

[4] = test system: NCI-H1975 (lung); assay: SRB-based cytotoxicity assay; format: cell-based; details: Homo sapiens, 72 hours
Procedure, shortened: as §1

[5] = test system: UC3 (Bladder); assay: SRB-based cytotoxicity assay; format: cell-based; details: 72 hours
Procedure, shortened: as §1

[6] = test system: HEK293T (kidney); assay: SRB-based cytotoxicity assay; format: cell-based; details: Homo sapiens, HEK-293T, 72 hours
Procedure, shortened: as §1

[7] = test system: K562; assay: SRB-based cytotoxicity assay; format: cell-based; details: Homo sapiens, Table 2
Procedure, shortened: as §1

[8] = test system: A549 (lung); assay: SRB-based cytotoxicity assay; format: cell-based; details: Homo sapiens, 72 hours
Procedure, shortened: as §1

[9] = test system: T98G (brain); assay: SRB-based cytotoxicity assay; format: cell-based; details: Homo sapiens, 72 hours
Procedure, shortened: as §1

[10] = SRB-based cytotoxicity assay; format: cell-based; details: human, MCF-10A cells (non-cancer breast cells); MCF10A; 31.25 nM; 72 hours; read-out: cell viability
Procedure, shortened: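 Cells seeded 16 h, then exposed 72 h to compound dilutions; TCA-fixed, SRB-stained, absorbance at 540 nm. Proliferation normalised to TCA-treated (negative) and DMSO sham (positive) controls; IC50 from sigmoidal curves, two biological replicates in quadruplicate.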

Structure (SMILES) | IC50 [1] [nM] | effect on binding of colchicine to tubulin [2] | IC50 [3] [nM] | IC50 [4] [nM] | IC50 [5] [nM] | IC50 [6] [nM] | IC50 [7] [nM] | IC50 [8] [nM] | IC50 [9] [nM] | viability at 72 h, 0.03125 µM [10] [%]
COc1ccccc1C(=O)/C=C/c1cc2ccccc2[nH]c1=O [CTR-17, (E)-3-(3-(2-Methoxyphenyl)-3-oxoprop-1-enyl)quinolin-2(1H)-one] | 380 ± 70 | inhibited the binding of colchicine to tubulin | 760 | 600 ± 140 | 390 ± 30 | 420 ± 70 | 150 ± 100 | 410 ± 60 | 820 ± 90 | –
COc1ccc2[nH]c(=O)c(/C=C/C(=O)c3ccccc3OC)cc2c1 [CTR-20, (E)-6-Methoxy-3-(3-(2-methoxyphenyl)-3-oxoprop-1-enyl) quinolin-2(1H)-one] | 100 ± 20 | inhibited the binding of colchicine to tubulin | 490 ± 130 | 390 ± 140 | 120 ± 30 | 190 | 130 ± 20 | 130 ± 40 | 220 ± 100 | –
COc1ccccc1C(=O)/C=C/c1cc2cccc(OC)c2[nH]c1=O [CTR-21, (E)-8-methoxy-3-(3-(2-methoxyphenyl)-3-oxoprop-1-enyl) quinolin-2(1H)-one] | – | – | – | – | – | – | – | – | – | 26
CCOc1ccccc1C(=O)/C=C/c1cc2ccccc2[nH]c1=O [CTR-32, (E)-3-(3-(2-ethoxyphenyl)-3-oxoprop-1-enyl)quinolin-2(1H)-one] | – | – | – | – | – | – | – | – | – | 87
